Test results as given in US20190144406A1, “CRYSTALLINE FORMS OF DIMETHOXY DOCETAXEL AND METHODS FOR PREPARING THE SAME” (Aventis Pharma S.A., priority 2008, published 2019).
Where two headings read alike, the source gives them in different places.

How the values were obtained:
[1] = solid form
Experimental: The analyses were carried out on a Panalytical X'Pert Pro diffractometer with a reflection-mode Bragg-Brentano focusing geometry (θ-2θ) assembly. The product analysed is deposited as a thin layer on a silicon single crystal. A copper anticathode tube (45 kV/40 mA) supplies an incident radiation Cu Kα1 (λ=1.5406 Å). The beam is collimated using Sollers slits which improve the parallelism and variable slits which limit scattering. An X'Celerator detector completes the device. The diagram recording characteristics are the following: sweeping from 2 to 30 degrees 2θ, counting time from 100 to 500 seconds per step with a step of 0.017°.

[2] = behaviour of the crystalline form under relative humidity; assay type: physicochemical; conditions: relative humidity of greater than 5%

SMILES | comparison of the PXRD analyses immediately after production and after maintaining at 40° C. for one month [1] | stability relative to the other forms described | change of form in the presence of relative humidity [2] | stability relative to the other forms described (listed as anhydrous form D)
CO[C@H]1C(=O)[C@]2(C)[C@@H](OC)C[C@H]3OC[C@@]3(OC(C)=O)[C@H]2[C@H](OC(=O)c2ccccc2)[C@]2(O)C[C@H](OC(=O)[C@H](O)[C@@H](NC(=O)OC(C)(C)C)c3ccccc3)C(C)=C1C2(C)C [Form A, reference compound] | partial desolvation resulting in a mixture of the acetone solvate form A and of the anhydrous form B being obtained |  |  | 
CO[C@H]1C(=O)[C@]2(C)[C@@H](OC)C[C@H]3OC[C@@]3(OC(C)=O)[C@H]2[C@H](OC(=O)c2ccccc2)[C@]2(O)C[C@H](OC(=O)[C@H](O)[C@@H](NC(=O)OC(C)(C)C)c3ccccc3)C(C)=C1C2(C)C [anhydrous form C] |  | least stable | changes to a hydrated form | 
CO[C@H]1C(=O)[C@]2(C)[C@@H](OC)C[C@H]3OC[C@@]3(OC(C)=O)[C@H]2[C@H](OC(=O)c2ccccc2)[C@]2(O)C[C@H](OC(=O)[C@H](O)[C@@H](NC(=O)OC(C)(C)C)c3ccccc3)C(C)=C1C2(C)C [Form D] | no change detected |  |  | most stable anhydrous form
